Values joined by “and” are separate entries in the source; they are usually repeats but may differ in a detail not shown here. Equal entries are not always repeated. Where two headings read alike, the source gives them in different places.
How the values were obtained:
[1] = Cytotoxicity, CellTiter Glo 2.0; assay type: cell-based; settings: human, ± SD; for viability at 72 h, 1 µM: panel A, read-out: Cell line viability after 72 h (%); for viability at 24 h, 10 µM / viability at 48 h, 10 µM / viability at 72 h, 10 µM: panel B, read-out: Cell line viability (%) after treatment with 10 µM compound
Procedure: Table S4. Cytotoxicity of gallinamides.
Cytotoxicity of gallinamide A and compounds 1, 6, and 9 was tested with four human cell lines and expressed as % viability vs. untreated cells. Cells were treated with the indicated compound concentrations for 72 h (A) or with 10 µM compounds for the indicated time (B) and assayed using CellTiter Glo 2.0 (Promega) according to the manufacturer’ s protocol. Cytotoxicity was expressed as percent viability compared to untreated control cells; the standard deviation of the mean of quadruplicate readings is shown. Cell line abbreviations: HL-60, human promyelocytic leukemia; HeLa, human cervical carcinoma; HepG2, human hepatocellular carcinoma; NHDF, normal human dermal fibroblasts.
Cell line viability after 72 h (%)
Cell line HL-60 HeLa HepG2 NHDF
Cell line viability (%) after treatment w ith 10 µM compound

cathepsin D = assay: Protease activity in S. mansoni adult extract, FRET substrate; assay type: biochemical; settings: 1 μM gallinamide A, substrate Abz–Lys–Pro–Ala–Glu–Phe–Nph–Ala–Leu, in the presence of E-64, mean ± SD
Text: (§1) We investigated whether gallinamide A inhibits the activity of the major proteases associated with proteolytic digestion in the adult schistosome gut. The digestive protease network includes the cysteine proteases cathepsins B, C, L from clan CA and legumain from clan CD, and an aspartic protease cathepsin D from clan AA.[11],[12] Their respective activities can be measured in protein extracts of S. mansoni using a kinetic assay with specific fluorogenic substrates. In addition, these activities can be attributed to particular proteases based on sensitivity to selective inhibitors[30]−[32] (Table 1). Accordingly, we exposed worm extracts to gallinamide A and analyzed the individual protease activities. Gallinamide A inhibited both the carboxydipeptidase (98%) and endopeptidase activities (94%) of cathepsin B as measured with the respective substrates, Abz–Phe–Arg–Val–Nph[15] and Cbz–Arg–Arg–AMC[33],[34] (Table 1). The activity measured with the Cbz–Phe–Arg–AMC substrate,[11],[13],[16],[33],[35] which can be cleaved by both cathepsins B and L, was inhibited by gallinamide A to a lesser extent (72%). […]
(§2) Proteolytic activities in S. mansoni adult extracts were measured in a continuous kinetic assay using the following peptidyl fluorogenic substrates (Bachem) or internally quenched FRET substrates (IOCB): 50 μM Cbz–Phe–Arg–AMC for cathepsins B and L,[13],[15] […]

cathepsins B and L = assay: Protease activity in S. mansoni adult extract, Cbz–Phe–Arg–AMC; assay type: biochemical; settings: 1 μM gallinamide A, endopeptidase, substrate Cbz–Phe–Arg–AMC, mean ± SD
Text: as §1, §2

legumain = assay: Protease activity in S. mansoni adult extract, Cbz–Ala–Ala–Asn–AMC; assay type: biochemical; settings: 1 μM gallinamide A, substrate Cbz–Ala–Ala–Asn–AMC, in the presence of E-64, mean ± SD
Text: as §1, §2

cathepsin B = assay: Protease activity in S. mansoni adult extract, cathepsin B substrates (continuous fluorometric assay); assay type: biochemical; settings: 1 μM gallinamide A, relative to uninhibited control, mean ± SD
Text: as §1, §2

cathepsin C = molecular target: T1, cathepsin C (Schistosoma mansoni, UniProt Q26563); assay: Protease activity in S. mansoni adult extract, Gly–Arg–AMC; assay type: biochemical; settings: 1 μM gallinamide A, exopeptidase (aminodipeptidase), substrate Gly–Arg–AMC, mean ± SD
T1 construct: from tissue; host or cells: soluble protein extract of mixed sex S. mansoni adults
T1 sequence (Q26563 218-454): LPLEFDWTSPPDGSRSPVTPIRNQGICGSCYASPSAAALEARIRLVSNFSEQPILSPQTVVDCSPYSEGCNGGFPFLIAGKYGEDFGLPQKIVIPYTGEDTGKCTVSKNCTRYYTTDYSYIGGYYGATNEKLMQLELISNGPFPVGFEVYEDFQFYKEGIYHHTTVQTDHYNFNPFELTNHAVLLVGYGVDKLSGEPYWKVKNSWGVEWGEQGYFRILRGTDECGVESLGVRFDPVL
Text: as §1, §2

Compound	viability at 72 h, 1 µM ([1]; HL-60, vs untreated cells) [%]	viability at 72 h, 1 µM ([1]; HeLa) [%]	viability at 72 h, 1 µM ([1]; HepG2) [%]	viability at 72 h, 1 µM ([1]; NHDF) [%]	viability at 24 h, 10 µM ([1]; HL-60) [%]	viability at 48 h, 10 µM ([1]; HL-60) [%]	viability at 72 h, 10 µM ([1]; HL-60) [%]	viability at 24 h, 10 µM ([1]; HeLa) [%]	viability at 48 h, 10 µM ([1]; HeLa) [%]	viability at 72 h, 10 µM ([1]; HeLa) [%]	viability at 24 h, 10 µM ([1]; HepG2) [%]	viability at 48 h, 10 µM ([1]; HepG2) [%]	viability at 72 h, 10 µM ([1]; HepG2) [%]	viability at 24 h, 10 µM ([1]; NHDF) [%]	viability at 48 h, 10 µM ([1]; NHDF) [%]	viability at 72 h, 10 µM ([1]; NHDF) [%]	other results
COC1=CC(=O)N(C(=O)/C=C/[C@H](C)NC(=O)[C@H](CC(C)C)NC(=O)[C@H](CC(C)C)OC(=O)[C@H](Cc2ccccc2)N(C)C)[C@H]1Cc1ccccc1 [compound 6]	100 ± 5	93 ± 4	104 ± 3	99 ± 3	31 ± 1	11 ± 2	11	45 ± 1	13 ± 1	13 ± 1	61 ± 1	14 ± 1	13 ± 1	100 ± 2	35 ± 3	13 ± 13	
CC[C@H](C)[C@@H](C(=O)O[C@@H](CC(C)C)C(=O)N[C@@H](CC(C)C)C(=O)N[C@@H](C)/C=C/C(=O)N1C(=O)C=C(OC)[C@@H]1C)N(C)C [gallinamide A]	100 ± 6	96 ± 4	96 ± 3	105 ± 6	99 ± 5	77 ± 3	73 ± 5	77 ± 4	73 ± 3	88 ± 6	93 ± 6	98 ± 7	94 ± 11	80 ± 2	89 ± 3	94 ± 94	inhibition (%) (cathepsin D): < 10%; inhibition (%) (cathepsin D; listed as Gallinamide A): 0.01 ± 1.54%; inhibition (%) (cathepsins B and L): 72%; inhibition (%) (cathepsins B and L; listed as Gallinamide A): 71.9 ± 2.0%; inhibition (%) (legumain): < 10%; inhibition (%) (legumain; listed as Gallinamide A): 8.2 ± 0.1%; inhibition (%) (cathepsin B; endopeptidase activity, substrate Cbz–Arg–Arg–AMC): 94% and 93.7 ± 0.3%; inhibition (%) (cathepsin B; exopeptidase (carboxydipeptidase) activity, substrate Abz–Phe–Arg–Val–Nph): 98.0 ± 2.2%; inhibition (%) (cathepsin C): < 10%; inhibition (%) (cathepsin C; listed as Gallinamide A): 2.8 ± 1.9%
